In the supplement of paper PMC10307832:

Assays:
Assay in all cases: relative viability (nuclei count vs DMSO), 5 days (fraction); higher = more cells survive
[1] = tested on: ABC-1
Summary of the method: (§1)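 Medians of duplicate plates are given as relative viability. That measure is the nuclei count in treated wells divided by the count in vehicle wells. Counts were taken on 4× images of lung cancer cell lines in 1536-well plates, 5 days after pin-tool dosing the day after seeding with one drug alone or a fixed anchor-drug dose plus five library-drug doses (not always all listed) in √10 steps.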

[2] = tested on: CAL-12T
Summary of the method: as §1

[3] = tested on: COR-L 105
Summary of the method: as §1

[4] = tested on: ChaGo-K-1
Summary of the method: as §1

[5] = tested on: EMC-BAC-2
Summary of the method: as §1

[6] = tested on: EPLC-272H
Summary of the method: as §1

[7] = tested on: HCC-15
Summary of the method: as §1

[8] = tested on: HCC-78
Summary of the method: as §1

[9] = tested on: HOP-62
Summary of the method: as §1

[10] = tested on: LXF-289
Summary of the method: as §1

[11] = tested on: NCI-H1666
Summary of the method: as §1

[12] = tested on: NCI-H1755
Summary of the method: as §1

[13] = tested on: NCI-H1915
Summary of the method: as §1

[14] = tested on: NCI-H1975
Summary of the method: as §1

[15] = tested on: NCI-H2023
Summary of the method: as §1

[16] = tested on: NCI-H2085
Summary of the method: as §1

[17] = tested on: NCI-H2126
Summary of the method: as §1

[18] = tested on: NCI-H3122
Summary of the method: as §1

[19] = tested on: NCI-H322M
Summary of the method: as §1

[20] = tested on: NCI-H358
Summary of the method: as §1

[21] = tested on: NCI-H441
Summary of the method: as §1

[22] = tested on: UMC-11
Summary of the method: as §1

CC(=O)O[C@@]12CO[C@@H]1C[C@H](O)[C@@]1(C)C(=O)[C@H](O)C3=C(C)[C@@H](OC(=O)[C@H](O)[C@@H](NC(=O)OC(C)(C)C)c4ccccc4)C[C@@](O)([C@@H](OC(=O)c4ccccc4)[C@H]21)C3(C)C [Docetaxel] + Cc1cc(Nc2cc(N3CCN(C)CC3)nc(Sc3ccc(NC(=O)C4CC4)cc3)n2)n[nH]1 [Tozasertib] (partner 0.1 µM) gave a relative viability ([1]; first compound 0.0002 µM) of 0.15, a relative viability ([1]; first compound 0.000632 µM) of 0.191 and a relative viability ([1]; first compound 0.002 µM) of 0.195. The relative viability ([1]; first compound 0.006325 µM) was 0.159, the relative viability ([1]; first compound 0.02 µM) was 0.218 and the relative viability ([2]; first compound 0.0002 µM) was 0.319. The relative viability ([2]; first compound 0.000632 µM) was 0.32, the relative viability ([2]; first compound 0.002 µM) was 0.227 and the relative viability ([2]; first compound 0.006325 µM) was 0.251. For the same molecule, the relative viability ([2]; first compound 0.02 µM) was 0.142, the relative viability ([3]; first compound 0.0002 µM) was 0.323 and the relative viability ([3]; first compound 0.000632 µM) was 0.382. The relative viability ([3]; first compound 0.002 µM) was 0.36, the relative viability ([3]; first compound 0.006325 µM) was 0.384 and the relative viability ([3]; first compound 0.02 µM) was 0.344. The relative viability ([4]; first compound 0.0002 µM) was 0.218, the relative viability ([4]; first compound 0.002 µM) was 0.201 and the relative viability ([4]; first compound 0.006325 µM) was 0.199. For the same molecule, the relative viability ([4]; first compound 0.02 µM) was 0.185, the relative viability ([5]; first compound 0.0002 µM) was 0.296 and the relative viability ([5]; first compound 0.000632 µM) was 0.321. For the same molecule, the relative viability ([5]; first compound 0.006325 µM) was 0.26, the relative viability ([5]; first compound 0.02 µM) was 0.185 and the relative viability ([6]; first compound 0.0002 µM) was 0.219. The relative viability ([6]; first compound 0.000632 µM) was 0.129, the relative viability ([6]; first compound 0.002 µM) was 0.132 and the relative viability ([6]; first compound 0.006325 µM) was 0.0975. For the same molecule, the relative viability ([6]; first compound 0.02 µM) was 0.104, the relative viability ([7]; first compound 0.0002 µM) was 0.391 and the relative viability ([7]; first compound 0.000632 µM) was 0.266. The relative viability ([7]; first compound 0.002 µM) was 0.174, the relative viability ([7]; first compound 0.006325 µM) was 0.239 and the relative viability ([7]; first compound 0.02 µM) was 0.135. For the same molecule, the relative viability ([8]; first compound 0.0002 µM) was 0.386, the relative viability ([8]; first compound 0.000632 µM) was 0.436 and the relative viability ([8]; first compound 0.002 µM) was 0.278. For the same molecule, the relative viability ([8]; first compound 0.006325 µM) was 0.344, the relative viability ([8]; first compound 0.02 µM) was 0.368 and the relative viability ([9]; first compound 0.0002 µM) was 0.353. For the same molecule, the relative viability ([9]; first compound 0.000632 µM) was 0.401, the relative viability ([9]; first compound 0.002 µM) was 0.281 and the relative viability ([9]; first compound 0.006325 µM) was 0.277. For the same molecule, the relative viability ([10]; first compound 0.0002 µM) was 0.172, the relative viability ([10]; first compound 0.000632 µM) was 0.165 and the relative viability ([10]; first compound 0.006325 µM) was 0.125. For the same molecule, the relative viability ([10]; first compound 0.02 µM) was 0.114, the relative viability ([11]; first compound 0.0002 µM) was 0.564 and the relative viability ([11]; first compound 0.000632 µM) was 0.506. It also gave a relative viability ([11]; first compound 0.002 µM) of 0.496, a relative viability ([11]; first compound 0.006325 µM) of 0.418 and a relative viability ([11]; first compound 0.02 µM) of 0.31. It also gave a relative viability ([12]; first compound 0.0002 µM) of 0.62, a relative viability ([12]; first compound 0.000632 µM) of 0.609 and a relative viability ([12]; first compound 0.002 µM) of 0.46. The relative viability ([12]; first compound 0.006325 µM) was 0.335, the relative viability ([12]; first compound 0.02 µM) was 0.373 and the relative viability ([13]; first compound 0.0002 µM) was 0.426. The relative viability ([13]; first compound 0.000632 µM) was 0.322, the relative viability ([13]; first compound 0.002 µM) was 0.247 and the relative viability ([13]; first compound 0.006325 µM) was 0.201. For the same molecule, the relative viability ([13]; first compound 0.02 µM) was 0.142, the relative viability ([14]; first compound 0.0002 µM) was 0.705 and the relative viability ([14]; first compound 0.000632 µM) was 0.367. For the same molecule, the relative viability ([14]; first compound 0.002 µM) was 0.158, the relative viability ([14]; first compound 0.006325 µM) was 0.133 and the relative viability ([14]; first compound 0.02 µM) was 0.0956. It also gave a relative viability ([15]; first compound 0.0002 µM) of 0.317, a relative viability ([15]; first compound 0.000632 µM) of 0.288 and a relative viability ([15]; first compound 0.002 µM) of 0.11. The relative viability ([15]; first compound 0.006325 µM) was 0.158, the relative viability ([15]; first compound 0.02 µM) was 0.0697 and the relative viability ([16]; first compound 0.0002 µM) was 0.743. It also gave a relative viability ([16]; first compound 0.000632 µM) of 0.779, a relative viability ([16]; first compound 0.002 µM) of 0.664 and a relative viability ([16]; first compound 0.006325 µM) of 0.481. It also gave a relative viability ([16]; first compound 0.02 µM) of 0.322, a relative viability ([17]; first compound 0.0002 µM) of 0.785 and a relative viability ([17]; first compound 0.000632 µM) of 0.45. The relative viability ([17]; first compound 0.002 µM) was 0.359, the relative viability ([17]; first compound 0.006325 µM) was 0.354 and the relative viability ([17]; first compound 0.02 µM) was 0.237. It also gave a relative viability ([18]; first compound 0.0002 µM) of 0.339, a relative viability ([18]; first compound 0.000632 µM) of 0.278 and a relative viability ([18]; first compound 0.002 µM) of 0.217. The relative viability ([18]; first compound 0.006325 µM) was 0.179, the relative viability ([18]; first compound 0.02 µM) was 0.122 and the relative viability ([19]; first compound 0.0002 µM) was 0.479. For the same molecule, the relative viability ([19]; first compound 0.000632 µM) was 0.477, the relative viability ([19]; first compound 0.002 µM) was 0.49 and the relative viability ([19]; first compound 0.006325 µM) was 0.485. It also gave a relative viability ([19]; first compound 0.02 µM) of 0.476, a relative viability ([20]; first compound 0.0002 µM) of 0.114 and a relative viability ([20]; first compound 0.000632 µM) of 0.112. For the same molecule, the relative viability ([20]; first compound 0.006325 µM) was 0.137, the relative viability ([20]; first compound 0.02 µM) was 0.117 and the relative viability ([21]; first compound 0.0002 µM) was 0.634. The relative viability ([21]; first compound 0.000632 µM) was 0.489, the relative viability ([21]; first compound 0.002 µM) was 0.293 and the relative viability ([21]; first compound 0.006325 µM) was 0.306. The relative viability ([21]; first compound 0.02 µM) was 0.248, the relative viability ([22]; first compound 0.0002 µM) was 0.193 and the relative viability ([22]; first compound 0.000632 µM) was 0.193. For the same molecule, the relative viability ([22]; first compound 0.002 µM) was 0.218, the relative viability ([22]; first compound 0.006325 µM) was 0.227 and the relative viability ([22]; first compound 0.02 µM) was 0.217.
